In brackets after ≈: the same amount, converted by molar mass. Where two headings read alike, the source gives them in different places.
Key:
PANC-1 cells = experiment: MTT cell viability assay, PANC-1; format: cell-based, human
Protocol: (§1) MCF-7 cells (Human breast adenocarcinoma), HepG2 (human hepatocellular carcinoma), A549 (human lung adenocarcinoma), Caco-2 (colon carcinoma), PANC-1 (human pancreatic cancer), and Vero cells (derived from normal kidney cells) were supplied by (Holding Company for Biological Products and Vaccines VACSERA; Giza, Egypt). The cells were cultured in PRMI 1640 medium (Lonza, Switzerland) supplemented with 10% fetal bovine serum (Gibco), 1% penicillin and 1% streptomycin (Sigma Aldrich, Saint Louis, MO, USA) at 37 °C under an atmosphere of 5% CO2 and 95% air.
(§2) The effect of parent compounds and their derivatives were assessed by (3-(4,5-dimethylthiazol-2-yl)-2,5diphenyl-tetrazolium bromide) MTT assay. […] After a merged sheet of cells developed, the growth media was decanted from the 96-well microtiter and refilled with different concentrations of compounds (µg/mL), and the plate was incubated at 37 °C for 48 h to minimize exposure to the dissolving agent (Supporting Information).
(§3) MTT solution (BIO BASIC CANADA INC) was prepared [5 mg/mL in phosphate buffered saline (PBS)], added to each well and incubated for 4 h, then after removing the media, 200 μL of DMSO was added to each well to solubilize the formazan crystals and the optical density of the formazan product was measured at 560 nm using microplate reader (mindray, MR-96A). The results were calculated as the mean of the three independent experiments. […]
(§4) Determination of sample cytotoxicity on cells (MTT protocol) […]
(§5) well) and incubated at 37°C for 24 hours to develop a complete monolayer sheet.
(§6) 2- Growth medium was decanted from 96 well micro titer plates after confluent sheet of cells were formed, cell monolayer was washed twice with wash media.
(§7) 3- two-fold dilutions of tested sample was made in RPMI medium with 2% serum […]
(§8) 4- 0.1 ml of each dilution was tested in different wells leaving 3 wells as control, receiving only maintenance medium.
(§9) 5- Plate was incubated at 37°C and examined. Cells were checked for any physical signs of toxicity, e.g. partial or complete loss of the monolayer, rounding, shrinkage, […]
(§10) 6- MTT solution was prepared (5mg/ml in PBS) (BIO BASIC CANADA INC).
(§11) 8- 20ul MTT solution were added to each well. Place on a shaking table, 150rpm for 5 minutes, to thoroughly mix the MTT into the media.
(§12) 10) Dump off the media. (dry plate on paper towels to remove residue if necessary. […] 9 ش - ايلعلا هبضهلا - مطقملا / ىسيئرلا لمعملا […]

MCF-7 cells = experiment: MTT cell viability assay, MCF-7; format: cell-based, Human
Protocol: as §1, §2, §3, §4, §5, §6, §7, §8, §9, §10, §11, §12

Vero normal cell line = experiment: MTT cell viability assay on normal Vero cells (selectivity); format: cell-based
Protocol: (§13) MCF-7 cells (Human breast adenocarcinoma), HepG2 (human hepatocellular carcinoma), A549 (human lung adenocarcinoma), Caco-2 (colon carcinoma), PANC-1 (human pancreatic cancer), and Vero cells (derived from normal kidney cells) were supplied by (Holding Company for Biological Products and Vaccines VACSERA; Giza, Egypt).
as §2, §3, §4, §5, §6, §7, §8, §9, §10, §11
(§14) 10) Dump off the media. (dry plate on paper towels to remove residue if necessary. […]

[1] = as above; format: cell-based; conditions: African green monkey, Vero cells (normal kidney cells)
Protocol: as §13, §2, §3, §4, §5, §6, §7, §8, §9, §10, §11, §14

A549 cells = experiment: MTT cell viability assay, A549; format: cell-based, human
Protocol: as §1, §2, §3, §4, §5, §6, §7, §8, §9, §10, §11, §12

Caco-2 cells = experiment: Annexin V-FITC/PI apoptosis assay by flow cytometry; format: cell-based; set-up: key: % of cells; conditions: annexin-V FITC/PI staining, 24h
Summary of the method: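 Caco-2 cells were exposed to test compounds or DMSO for 24h, then stained with Annexin V-FITC and PI for 5 min at room temperature in the dark. Flow cytometry (Ex 488 nm, Em 533 nm; FL1 annexin, FL2 PI) scored viable, apoptotic and necrotic fractions.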

HepG2 cells = experiment: MTT cell viability assay, HepG2; format: cell-based, human; conditions: Homo sapiens, HepG2; MTT, 48 h, average of triplicates; read-out: IC50 (μM) ± SD HepG2
Protocol: as §1, §2, §3, §4, §5, §6, §7, §8, §9, §10, §11, §12

COc1cc(/C=C/C(=O)O)ccc1O [Compound 2, Ferulic acid]
viability at 15.625 µg/mL (PANC-1 cells; Homo sapiens, PANC-1, Panc1, 15.625 ug/ml): 100% | viability at 31.25 µg/mL (PANC-1 cells; Homo sapiens, PANC-1, Panc1, 31.25 ug/ml): 99.7% | viability at 62.5 µg/mL (PANC-1 cells; Homo sapiens, PANC-1, Panc1, 62.5 ug/ml): 100% | viability at 125 µg/mL (PANC-1 cells; Homo sapiens, PANC-1, Panc1, 125 ug/ml): 86.5% | viability at 250 µg/mL (PANC-1 cells; Homo sapiens, PANC-1, Panc1, 250 ug/ml): 24.9% | viability at 500 µg/mL (PANC-1 cells; Homo sapiens, PANC-1, Panc1, 500 ug/ml): 28.5% | IC50 (PANC-1 cells; Homo sapiens, PANC-1, Panc1, MTT report T-4-019-5, Conc. ug/ml, read-out: IC50): 195 µg/mL (≈ 1010 µM) | Toxicity % (PANC-1 cells; Panc1, 15.625 ug/ml): 0% | Toxicity % (PANC-1 cells; Panc1, 31.25 ug/ml): 0.2717% | Toxicity % (PANC-1 cells; Panc1, 62.5 ug/ml): 0% | Toxicity % (PANC-1 cells; Panc1, 125 ug/ml): 13.5% | Toxicity % (PANC-1 cells; Panc1, 250 ug/ml): 75.09% | Toxicity % (PANC-1 cells; Panc1, 500 ug/ml): 71.47% | IC50 (MCF-7 cells; Homo sapiens, MCF7, MTT, 48 h, average of triplicates, read-out: IC50 (μM) ± SD MCF-7): 1120 µM | viability at 15.625 µg/mL (MCF-7 cells; Homo sapiens, Mcf7, 15.625 ug/ml): 98.7% | viability at 31.25 µg/mL (MCF-7 cells; Homo sapiens, Mcf7, 31.25 ug/ml): 99.4% | viability at 62.5 µg/mL (MCF-7 cells; Homo sapiens, Mcf7, 62.5 ug/ml): 99.2% | viability at 125 µg/mL (MCF-7 cells; Homo sapiens, Mcf7, 125 ug/ml): 84.9% | viability at 250 µg/mL (MCF-7 cells; Homo sapiens, Mcf7, 250 ug/ml): 29.4% | viability at 500 µg/mL (MCF-7 cells; Homo sapiens, Mcf7, 500 ug/ml): 11.7% | IC50 (MCF-7 cells; Homo sapiens, Mcf7, MTT report T-4-019-5, Conc. ug/ml, read-out: IC50): 203 µg/mL | Toxicity % (MCF-7 cells; Mcf7, 15.625 ug/ml): 1.286% | Toxicity % (MCF-7 cells; Mcf7, 31.25 ug/ml): 0.6431% | Toxicity % (MCF-7 cells; Mcf7, 62.5 ug/ml): 0.7503% | Toxicity % (MCF-7 cells; Mcf7, 125 ug/ml): 15.11% | Toxicity % (MCF-7 cells; Mcf7, 250 ug/ml): 70.63% | Toxicity % (MCF-7 cells; Mcf7, 500 ug/ml): 88.32% | Toxicity % (Vero normal cell line; 15.625 ug/ml): 0% | Toxicity % (Vero normal cell line; 31.25 ug/ml): 0.365% | Toxicity % (Vero normal cell line; 62.5 ug/ml): 4.501% | Toxicity % (Vero normal cell line; 125 ug/ml): 29.81% | Toxicity % (Vero normal cell line; 250 ug/ml): 66.79% | Toxicity % (Vero normal cell line; 500 ug/ml): 82.48% | IC50 (Vero normal cell line; Chlorocebus sabaeus, MTT report T-4-019-5, Conc. ug/ml): 196 µg/mL (≈ 1010 µM) | viability at 48 h, 15.625 ug/ml ([1]; 15.625 ug/ml): 100% | viability at 48 h, 31.25 ug/ml ([1]; 31.25 ug/ml): 99.6% | viability at 48 h, 62.5 ug/ml ([1]; 62.5 ug/ml): 95.5% | viability at 48 h, 125 ug/ml ([1]; 125 ug/ml): 70.2% | viability at 48 h, 250 ug/ml ([1]; 250 ug/ml): 33.2% | viability at 48 h, 500 ug/ml ([1]; 500 ug/ml): 17.5% | Toxicity % (A549 cells; A549, 15.625 ug/ml): 0.8674% | Toxicity % (A549 cells; A549, 31.25 ug/ml): 1.115% | Toxicity % (A549 cells; A549, 62.5 ug/ml): 0.7435% | Toxicity % (A549 cells; A549, 125 ug/ml): 4.089% | Toxicity % (A549 cells; A549, 250 ug/ml): 59.11% | Toxicity % (A549 cells; A549, 500 ug/ml): 75.96% | IC50 (A549 cells; Homo sapiens, A549, MTT, 48 h, average of triplicates, read-out: IC50 (μM) ± SD A549): 1740 µM | viability at 15.625 µg/mL (A549 cells; Homo sapiens, A549, 15.625 ug/ml): 99.1% | viability at 31.25 µg/mL (A549 cells; Homo sapiens, A549, 31.25 ug/ml): 98.9% | viability at 62.5 µg/mL (A549 cells; Homo sapiens, A549, 62.5 ug/ml): 99.3% | viability at 125 µg/mL (A549 cells; Homo sapiens, A549, 125 ug/ml): 95.9% | viability at 250 µg/mL (A549 cells; Homo sapiens, A549, 250 ug/ml): 40.9% | viability at 500 µg/mL (A549 cells; Homo sapiens, A549, 500 ug/ml): 24% | IC50 (A549 cells; Homo sapiens, A549, MTT report T-4-019-5, Conc. ug/ml, read-out: IC50): 314 µg/mL | Apoptosis Total (Caco-2 cells): 13.22 | Early Apoptosis (Caco-2 cells): 5.17 | Late Apoptosis (Caco-2 cells): 6.48 | Necrosis (Caco-2 cells): 1.57 | IC50 (HepG2 cells): 810 ± 2170 µM

From article PMC9571594, “Development of Semisynthetic Apoptosis-Inducing Agents Based on Natural Phenolic Acids Scaffold: Design, Synthesis and In-Vitro Biological Evaluation” (Molecules, 2022)
